target: T1, human A2a receptor (Homo sapiens, UniProt P29274); experiment: A2a competition binding assay, Scintillation Proximity technology; settings: membranes from HEK293 cells expressing human A2a receptor; Ki by Cheng-Prusoff equation
T1 construct: purchased Perkin-Elmer RBHA2AM400UA; host or cells: HEK293 cells (membranes)
In short: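 Membranes from HEK293 cells expressing human A2a, adenosine deaminase-treated, incubated 1 h at room temperature with compound (3000 to 0.15 nM) and 0.5 nM tritiated pyrazolotriazolopyrimidine radioligand on WGA SPA beads in Ca/Mg-free PBS + 10 mM MgCl2. Non-specific binding with 1 μM CGS15943; Ki by Cheng-Prusoff.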

T1 sequence (P29274 whole entry): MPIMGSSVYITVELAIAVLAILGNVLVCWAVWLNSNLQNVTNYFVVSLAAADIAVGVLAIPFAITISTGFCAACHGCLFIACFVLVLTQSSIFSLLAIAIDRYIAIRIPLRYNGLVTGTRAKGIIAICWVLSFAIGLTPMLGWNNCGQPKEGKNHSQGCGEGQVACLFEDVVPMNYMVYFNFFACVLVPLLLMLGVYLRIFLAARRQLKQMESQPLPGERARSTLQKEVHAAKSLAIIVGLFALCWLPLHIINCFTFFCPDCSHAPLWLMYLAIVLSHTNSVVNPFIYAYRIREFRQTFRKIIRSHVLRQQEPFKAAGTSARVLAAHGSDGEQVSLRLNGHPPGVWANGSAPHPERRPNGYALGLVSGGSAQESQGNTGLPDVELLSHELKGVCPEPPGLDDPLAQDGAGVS

Ki [nM] | Compound
0.293 | Cc1nc(C(=O)NCc2n[nH]c3c2CCCCC3)c(N)nc1-c1ncco1 [Ex-161, 3-amino-N-(1,4,5,6,7,8-hexahydrocyclohepta[c]pyrazol-3-ylmethyl)-6-methyl-5-(1,3-oxazol-2-yl)pyrazine-2-carboxamide]
0.333 | Cc1nc(C(=O)NCc2nccc(F)c2C)c(N)nc1-c1ncco1 [Ex-162, 3-amino-N-[(4-fluoro-3-methylpyridin-2-yl)methyl]-6-methyl-5-(1,3-oxazol-2-yl)pyrazine-2-carboxamide]
0.197 | CCc1c(F)ccnc1CNC(=O)c1nc(C)c(-c2ncco2)nc1N [Ex-163, 3-amino-N-[(3-ethyl-4-fluoropyridin-2-yl)methyl]-6-methyl-5-(1,3-oxazol-2-yl)pyrazine-2-carboxamide]
1.29 | Cc1nc(C(=O)NCc2nc3ccccc3[nH]2)c(N)nc1-c1ncco1 [Ex-164, 3-amino-N-(1H-benzimidazol-2-ylmethyl)-6-methyl-5-(1,3-oxazol-2-yl)pyrazine-2-carboxamide]
0.599 | CCn1ncnc1CNC(=O)c1nc(C)c(-c2ncco2)nc1N [Ex-166, 3-amino-N-[(1-ethyl-1H-1,2,4-triazol-5-yl)methyl]-6-methyl-5-(1,3-oxazol-2-yl)pyrazine-2-carboxamide]
0.158 | CCOc1cccnc1CNC(=O)c1nc(C)c(-c2ncco2)nc1N [Ex-167, 3-amino-N-[(3-ethoxypyridin-2-yl)methyl]-6-methyl-5-(1,3-oxazol-2-yl)pyrazine-2-carboxamide]
0.375 | Cc1nc(C(=O)NCc2ncc(F)cc2C2CC2)c(N)nc1-c1ncco1 [Ex-169, 3-amino-N-[(3-cyclopropyl-5-fluoropyridin-2-yl)methyl]-6-methyl-5-(1,3-oxazol-2-yl)pyrazine-2-carboxamide]
0.482 | Cc1nc(C(=O)NCc2nn(C)cc2C2CC2)c(N)nc1-c1ncco1 [Ex-170, 3-amino-N-[(4-cyclopropyl-1-methyl-1H-pyrazol-3-yl)methyl]-6-methyl-5-(1,3-oxazol-2-yl)pyrazine-2-carboxmamide]
3.05 | Cc1nc(C(=O)NCc2nccnc2F)c(N)nc1-c1ncco1 [Ex-172, 3-amino-N-[(3-fluoropyrazin-2-yl)methyl]-6-methyl-5-(1,3-oxazol-2-yl)pyrazine-2-carboxamide]
0.191 | CCOc1cccc(F)c1CNC(=O)c1nc(C)c(-c2ncco2)nc1N [Ex-173, 3-amino-N-(2-ethoxy-6-fluorobenzyl)-6-methyl-5-(1,3-oxazol-2-yl)pyrazine-2-carboxamide]
2.96 | Cc1nc(C(=O)NCc2nn(C)c3c2CCC3)c(N)nc1-c1ncco1 [Ex-174, 3-amino-6-methyl-N-[(1-methyl-1,4,5,6-tetrahydrocyclopenta[c]pyrazol-3-yl)methyl]-5-(1,3-oxazol-2-yl)pyrazine-2-carboxamide]
6.31 | Cc1cncnc1CNC(=O)c1nc(C)c(-c2ncco2)nc1N [Ex-175, 3-amino-6-methyl-N-[(5-methylpyrimidin-4-yl)methyl]-5-(1,3-oxazol-2-yl)pyrazine-2-carboxamide]
0.217 | Cc1nc(C(=O)NCc2nccc3ccccc23)c(N)nc1-c1ncco1 [Ex-178, 3-amino-N-(isoquinolin-1-ylmethyl)-6-methyl-5-(1,3-oxazol-2-yl)pyrazine-2-carboxamide]
0.1 | CCc1cccnc1CNC(=O)c1nc(C)c(-c2ncco2)nc1N [Ex-179, 3-amino-N-[(3-ethylpyridin-2-yl)methyl]-6-methyl-5-(1,3-oxazol-2-yl)pyrazine-2-carboxamide]
0.168 | Cc1nc(C(=O)NCc2nccc(F)c2C2CC2)c(N)nc1-c1ncco1 [Ex-180, 3-amino-N-[(3-cyclopropyl-4-fluoropyridin-2-yl)methyl]-6-methyl-5-(1,3-oxazol-2-yl)pyrazine-2-carboxamide]
1.3 | Cc1nc(C(=O)NCc2cccc3c2ncn3CC(F)(F)F)c(N)nc1-c1ncco1 [Ex-181, 3-amino-6-methyl-5-(1,3-oxazol-2-yl)-N-{[1-(2,2,2-trifluoroethyl)-1H-benzimidazol-4-yl]methyl}pyrazine-2-carboxamide]
2.7 | Cc1nc(C(=O)NCc2ncc(C(F)(F)F)cc2C2CC2)c(N)nc1-c1ncco1 [Ex-182, 3-amino-N-{[3-cyclopropyl-5-(trifluoromethyl)pyridin-2-yl]methyl}-6-methyl-5-(1,3-oxazol-2-yl)pyrazine-2-carboxamide]
6.72 | Cc1cc(C(F)(F)F)cnc1CNC(=O)c1nc(C)c(-c2ncco2)nc1N [Ex-183, 3-amino-6-methyl-N-{[3-methyl-5-(trifluoromethyl)pyridin-2-yl]methyl}-5-(1,3-oxazol-2-yl)pyrazine-2-carboxamide]
0.208 | Cc1nc(C(=O)NCc2nccnc2C2CC2)c(N)nc1-c1ncco1 [Ex-184, 3-amino-N-[(3-cyclopropyl-pyrazin-2-yl)methyl]-6-methyl-5-(1,3-oxazol-2-yl)pyrazine-2-carboxamide]
4.25 | Cc1cnc(CNC(=O)c2nc(C)c(-c3ncco3)nc2N)nc1 [Ex-185, 3-amino-6-methyl-N-[(5-methylpyrimidin-2-yl)methyl]-5-(1,3-oxazol-2-yl)pyrazine-2-carboxamide]
0.181 | COc1cccc(F)c1CNC(=O)c1nc(C)c(-c2ncco2)nc1N [Ex-186, 3-amino-N-(2-fluoro-6-methoxybenzyl)-6-methyl-5-(1,3-oxazol-2-yl)pyrazine-2-carboxamide]
0.449 | CCc1nccnc1CNC(=O)c1nc(C)c(-c2ncco2)nc1N [Ex-187, 3-amino-N-[(3-ethylpyrazin-2-yl)methyl]-6-methyl-5-(1,3-oxazol-2-yl)pyrazine-2-carboxamide]
0.29 | Cc1nc(C(=O)NCc2ncnn2C(C)C)c(N)nc1-c1ncco1 [Ex-188, 3-amino-6-methyl-N-{[1-(1-methylethyl)-1H-1,2,4-triazol-5-yl]methyl}-5-(1,3-oxazol-2-yl)pyrazine-2-carboxamide]
1.03 | Cc1nc(C(=O)NCc2cccc3c2ncn3C(C)C)c(N)nc1-c1ncco1 [Ex-189]
12.3 | Cc1nc2c(o1)CN(CCNC(=O)c1nc(C)c(-c3ncco3)nc1N)CC2 [Ex-190, 3-amino-6-methyl-N-[2-(2-methyl-6,7-dihydro[1,3]oxazolo[5,4-c]pyridin-5-(4H)-yl)ethyl]-5-(1,3-oxazol-2-yl)pyrazine-2-carboxamide]
0.435 | CCn1cnc2c(CNC(=O)c3nc(C)c(-c4ncco4)nc3N)cccc21 [Ex-193, 3-amino-N-[(1-ethyl-1H-benimidazol-4-yl)methyl]-6-methyl-5-(1,3-oxazol-2-yl)pyrazine-2-carboxamide]
1.65 | Cc1nc(C(=O)NCc2nn(C)cc2C(F)F)c(N)nc1-c1ncco1 [Ex-194, 3-amino-N-{[4-(difluoromethyl)-1-methyl-1H-pyrazol-3-yl]methyl}-6-methyl-5-(1,3-oxazol-2-yl)pyrazine-2-carboxamide]
1.71 | Cc1nccnc1CNC(=O)c1nc(C)c(-c2ncco2)nc1N [Ex-195, 3-amino-6-methyl-N-[(3-methylpyrazin-2-yl)methyl]-5-(1,3-oxazol-2-yl)pyrazine-2-carboxamide]
2.53 | CCc1cc(C(F)(F)F)cnc1CNC(=O)c1nc(C)c(-c2ncco2)nc1N [Ex-196, 3-amino-N-{[3-ethyl-5-(trifluoromethyl)pyridin-2-yl]methyl}-6-methyl-5-(1,3-oxazol-2-yl)pyrazine-2-carboxamide]
